Measurements published in US20100257640A1, “METHOD FOR GROWING SUGARCANE” (SYNGENTA CROP PROTECTION, INC., priority 2007, published 2010).

Key:
Variety RB 86-7515 = test: Greenhouse pot test: effect of formulated thiamethoxam on vigour; type: in vivo, sugarcane
Procedure: This trial was conducted on Variety RB 86-7515.

[1] = tested on: sugar cane Variety RB 86 7515; test: Greenhouse pot test: effect of formulated imidacloprid on vigour; type: in vivo; conditions: result in words
Text: 1) carretel with one bud treated with Imidacloprid (1200 g. ha^−1) 2) carretel with one bud treated with Imidacloprid (1200 g. ha^−1)+15% v/v of polymer 3) stalk with 3 buds untreated 4) carretel with one bud untreated 5) carretel with one bud untreated+15% v/v of polymer 6) stalk with 3 buds treated with Imidacloprid (1200 g. ha^−1).
Twenty 1 L pots were filled with 16 L of clay soil, 1.6 L of sand and 8 g of nitrogen, 28 g of phosphorus (P2O5) and 16 g of potassium (K2O). Six carretels of 4 cm length with one bud were planted in each pot (treatments 1, 2, 4 and 5). Two stalks with three buds were planted in each control pot (treatments 3 and 6) to simulate conventional planting. A layer of 3 cm of soil was used to cover the carretels. The carretels of treatments 1 and 2 were treated with 1200 g ai.ha^−1 of imidacloprid, by dipping the carretels in the slurry for 3 min, based on the uptake capacity of carretels. The stalks were treated simulating a furrow application at 100 L.ha^−1 of slurry. Experimental design adopted was randomized complete block with four replications. The pots were maintained with adequate moisture during the test. Evaluations of: plant height, leaf width, culm diameter and number of tillers were done at 20, 30 and 42 days after planting.

[2] = tested on: sugar cane Variety RB 86-7515; test: Greenhouse pot test: effect of formulated abamectin on vigour (tillers, plant height, leaf width, culm diameter); type: in vivo
Procedure: Greenhouse test with sugarcane buds growing in pots were conducted to study the effect of formulated abamectin regarding “vigour”, tillers, plant height, leaf width and culm diameter on sugar cane Variety RB 86-7515.
1) carretel with one bud treated with abamectin 2) carretel with one bud treated with abamectin+15% v/v of polymer 3) stalk with 3 buds untreated 4) carretel with one bud untreated 5) carretel with one bud untreated+15% v/v of polymer 6) stalk with 3 buds treated with abamectin.
Twenty 1 L pots were filled with 16 L of clay soil, 1.6 L of sand and 8 g of nitrogen, 28 g of phosphorus (P2O5) and 16 g of potassium (K2O). Six carretels of 4 cm length with only one bud were planted in each pot (treatments 1, 2, 4 and 5). Two stalks with three buds were planted in each control pot (treatments 3 and 6) to simulate conventional planting. A layer of 3 cm of soil was used to cover the carretels. The carretels of treatments 1, 2 were treated with 200 ml/ha of abamectin, by dipping the carretels in the slurry for 3 min, based on the uptake capacity of carretels. The stalks were treated simulating a furrow application at 100 L.ha^−1 of slurry. Experimental design adopted was randomized complete block with four replications. The pots were maintained with adequate moisture during the test. […]

[3] = tested on: sugar cane Variety RB 86-7515; test: Greenhouse pot test: effect of formulated clothianidin on vigour; type: in vivo; conditions: carretels; result in words
Procedure: Greenhouse test with sugarcane buds growing in pots were conducted to study the effect of clothianidin equivalent to an application rate of 200 g ai. ha^−1 on “vigour”, evaluating tillers, plant height, leaf width and culm diameter. This trial was conducted on sugar cane Variety RB 86-7515.
1) carretel with one bud treated with clothianidin (200 g ai. ha^−1) 2) carretel with one bud treated with clothianidin (200 g ai. ha^−1)+15% v/v of polymer 3) stalk with 3 buds untreated 4) carretel with one bud untreated+15% v/v of polymer 5) carretel with one bud untreated 6) stalk with 3 buds treated with clothianidin (200 g ai. ha^−1).
Twenty 1 L pots were filled with 16 L of clay soil, 1.6 L of sand and 8 g of nitrogen, 28 g of phosphorus (P2O5) and 16 g of potassium (K2O). Six carretels of 4 cm length with one bud were planted in each pot (treatments 1, 2, 4 and 5). Two stalks with three buds were planted in each control pot (treatments 3 and 6) to simulate conventional planting. A layer of 3 cm of soil was used to cover the carretels. The carretels of treatments 1 and 2 were treated with 200 g ai.ha^−1 of clothianidin, by dipping the carretels in a slurry for 3 min. The stalks were treated simulating a furrow application at 100 L.ha^−1 of slurry. The pots were maintained with adequate moisture during the test. […]

[4] = tested on: sugar cane Variety RB 86-7515; test: Greenhouse pot test: effect of formulated fipronil on vigour; type: in vivo; conditions: result in words
Procedure: Greenhouse test with sugarcane buds growing in pots were conducted to study the effect of fipronil equivalent to an application rate of 200 g. ha^−1 on “vigour”, evaluating tillers, plant height, leaf width and culm diameter on sugar cane Variety RB 86-7515.
Twenty 1 L pots were filled with 16 L of clay soil, 1.6 L of sand and 8 g of nitrogen, 28 g of phosphorus (P2O5) and 16 g of potassium (K2O). Six carretels of 4 cm length with one bud were planted in each pot (treatments 1, 2, 4 and 5). Two stalks with three buds were planted in each control pot (treatments 3 and 6) to simulate conventional planting. A layer of 3 cm of soil was used to cover the carretels. The carretels of treatments 1 and 2 were treated with 200 g ai.ha^−1 of fipronil, by dipping the carretels in the slurry for 3 min, based on the uptake capacity of carretels. The stalks were treated simulating a furrow application at 100 L.ha^−1 of slurry. Experimental design adopted was randomized complete block with four replications. The pots were maintained with adequate moisture during the test. Evaluations of: plant height, leaf width, culm diameter and number of tillers were done at 20, 30 and 42 days after planting.

`CN1COCN(Cc2cnc(Cl)s2)/C1=N\[N+](=O)[O-]` [Thiamethoxam, thiamethoxam] was tested, and the “increase in "quality"” value (Variety RB 86-7515; against the other treatments, not apparent from the listed parameters) was “greater than the other treatments”, the “number of tillers in comparison with the corresponding controls” value (Variety RB 86-7515; carretels, result in words) was “increased number of tillers” and the “plant height in comparison with the corresponding controls” value (Variety RB 86-7515; carretels, result in words) was “reduced plant height”.

With `O=[N+]([O-])NC1=NCCN1Cc1ccc(Cl)nc1` [Imidacloprid, imidacloprid] the “number of tillers in comparison with the control” value (“number … with the control” below) [1] was “increase in the number of tillers in comparison with the control”.

In the case of abamectin, the Tillers ([2]; carretel with one bud, dipped 3 min, 100 g ai/ha (Untreated + Polymer 0.0), polymer 15% v/v where named, 42 days after planting) is reported as 14 number and the “number … with the control” value ([2]; result in words) is reported as “increase in the number of tillers in comparison with the control”.

`CN/C(=N\[N+](=O)[O-])NCc1cnc(Cl)s1` [Clothianidin, clothianidin] was tested, and the “number of tillers in comparison with the corresponding control (untreated, one-bud)” value [3] was “increased number of tillers” and the “plant height in comparison with the corresponding control (untreated, one-bud)” value [3] was “slight reduction in the plant height”.

With `N#Cc1nn(-c2c(Cl)cc(C(F)(F)F)cc2Cl)c(N)c1[S+]([O-])C(F)(F)F` (stereo not shown) [Fipronil, fipronil] the “height of the resultant plants in comparison with the control” value [4] was “decreased the height of the resultant plants in comparison with the control” and the “number … with the control” value [4] was “increased the number of tillers present on the plants”.
